pIC50: −log10 of the molar value. Values after ≈ are worked out from the molar mass of the structure shown. Active and inactive are the calls of the source. The calls are words filed in the database; no cut-off is given here.
How the values were obtained:
[1] = Inhibition of AKT phosphorylation at Thr308 in human BT474 cells; format: cell-based; conditions: BT-474
[2] = Inhibition of AKT phosphorylation at Ser473 in human MDA-MB-468 cells; format: cell-based
[3] = Lipophilicity, log D of the compound; conditions: octanol/water
[4] = target: RAC-alpha serine/threonine-protein kinase (Homo sapiens, UniProt P31749); experiment: Inhibition of AKT1
[5] = Aqueous solubility at pH 7.4
Hepatocyte [6] = experiment: Intrinsic clearance in human hepatocytes assessed per 10^-6 cells
[7] = Fraction unbound in Han Wistar rat plasma; format: ADME, cell-free
[8] = Blood clearance in iv dosed Han Wistar rat
[9] = Volume of distribution at steady state in Han Wistar rat; format: ADME, organism-based; conditions: in vivo, read-out: Vdss
BT474c [10] = experiment: Inhibition of AKT phosphorylation at Ser473 in human BT474c cells at 0.01 uM to 10 uM after 24 hrs; format: cell-based
BT474c [11] = experiment: Antitumor activity against human BT474c cells xenografted in nude mouse assessed as tumor growth inhibition at 200 mg/kg, po qd for 21 days; format: functional, organism-based; set-up: dose 200 mg/kg
Mus musculus [12] = experiment: Inhibition of AKT-mediated GSK3beta phosphorylation in human BT474c cells xenografted in nude mouse at 100 mg/kg, po after 24 hrs; format: functional, organism-based; set-up: dose 100 mg/kg
Mus musculus [13] = experiment: Inhibition of AKT phosphorylation at S473 in human BT474c cells xenografted in nude mouse at 100 mg/kg, po after 4 hrs; format: functional, organism-based; set-up: dose 100 mg/kg
[14] = Oral bioavailability in Han Wistar rat; format: ADME, organism-based; conditions: in vivo
BT474c [15] = experiment: Inhibition of AKT phosphorylation at Thr308 in human BT474c cells at 0.01 uM to 10 uM after 24 hrs; format: cell-based
Hepatocyte [16] = experiment: Intrinsic clearance in Han Wistar rat hepatocytes assessed per 10^-6 cells
Mus musculus [17] = experiment: Inhibition of AKT phosphorylation at S473 in human BT474c cells xenografted in nude mouse at 200 mg/kg, po after 24 hrs; format: functional, organism-based; set-up: dose 200 mg/kg
Mus musculus [18] = experiment: Inhibition of AKT-mediated GSK3beta phosphorylation in human BT474c cells xenografted in nude mouse at 200 mg/kg, po after 24 hrs; format: functional, organism-based; set-up: dose 200 mg/kg
Mus musculus [19] = experiment: Inhibition of AKT phosphorylation at S473 in human BT474c cells xenografted in nude mouse at 200 mg/kg, po after 4 hrs; format: functional, organism-based; set-up: dose 200 mg/kg
BT474c [20] = experiment: Inhibition of AKT-mediated ribosomal S6 protein phosphorylation at S235/236 in human BT474c cells at 0.01 uM to 10 uM after 24 hrs; format: cell-based
BT474c [21] = experiment: Antitumor activity against human BT474c cells xenografted in po dosed nude mouse assessed as tumor growth inhibition administered qd for 21 days; format: functional, organism-based
BT474c [22] = experiment: Inhibition of AKT-mediated PRAS40 phosphorylation at T246 in human BT474c cells at 0.01 uM to 10 uM after 24 hrs; format: cell-based
Mus musculus [23] = experiment: Inhibition of AKT-mediated GSK3beta phosphorylation in human BT474c cells xenografted in nude mouse at 200 mg/kg, po after 4 hrs; format: functional, organism-based; set-up: dose 200 mg/kg
Mus musculus [24] = experiment: Inhibition of AKT phosphorylation at S473 in human BT474c cells xenografted in nude mouse at 100 mg/kg, po after 24 hrs; format: functional, organism-based; set-up: dose 100 mg/kg
Mus musculus [25] = experiment: Inhibition of AKT-mediated GSK3beta phosphorylation in human BT474c cells xenografted in nude mouse at 100 mg/kg, po after 4 hrs; format: functional, organism-based; set-up: dose 100 mg/kg

RAC-alpha serine/threonine-protein kinase, sequence (P31749 whole entry): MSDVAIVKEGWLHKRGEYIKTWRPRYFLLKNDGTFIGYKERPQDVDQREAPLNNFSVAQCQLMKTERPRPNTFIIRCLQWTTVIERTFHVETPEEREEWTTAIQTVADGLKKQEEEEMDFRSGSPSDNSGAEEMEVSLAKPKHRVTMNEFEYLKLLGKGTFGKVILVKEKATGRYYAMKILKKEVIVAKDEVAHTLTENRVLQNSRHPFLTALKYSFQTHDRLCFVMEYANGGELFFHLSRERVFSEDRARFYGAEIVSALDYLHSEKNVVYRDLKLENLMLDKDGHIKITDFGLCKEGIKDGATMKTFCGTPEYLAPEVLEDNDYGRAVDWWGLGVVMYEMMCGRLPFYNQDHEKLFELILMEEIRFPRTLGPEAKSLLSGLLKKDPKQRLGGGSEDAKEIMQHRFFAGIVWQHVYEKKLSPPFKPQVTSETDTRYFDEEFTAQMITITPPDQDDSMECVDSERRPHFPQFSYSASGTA

| Compound | pIC50 [1] | pIC50 [2] | logD [3] | pIC50 [4] | solubility [5] | further results |
| --- | --- | --- | --- | --- | --- | --- |
| NC1(c2ccc(-c3c(-c4ccccc4)ccn4ncnc34)cc2)CCC1 | 6.32 | 6.18 | 1.7 | 5.57 | 1000 µM (≈ 340 µg/mL) | – |
| NC1(c2ccc(-c3ncc4cnccc4c3-c3ccccc3)cc2)CCC1 | 7.32 | 7.43 | 2.2 | 6.93 | 2200 µM (≈ 773 µg/mL) | CLH (Hepatocyte [6]): 300 µL/min; fraction unbound [7]: 0.13; clearance ([8]; whole blood): 40 mL/min/kg; Vd [9]: 0.3 L/kg |
| NC(=O)c1cnc(-c2ccc(C3(N)CCC3)cc2)c(-c2ccccc2)c1 | 6.37 | 6.49 | – | 5.98 | – | inhibition (BT474c [10]): Active; growth inhibition (GI) (BT474c [11]): Active; inhibition (Mus musculus [12]): Active; inhibition (Mus musculus [13]): Active; bioavailability [14]: 48%; inhibition (BT474c [15]): Active; CLH (Hepatocyte [16]): 4 µL/min; inhibition (Mus musculus [17]): Active; inhibition (Mus musculus [18]): Active; inhibition (Mus musculus [19]): Active; inhibition (BT474c [20]): Active; growth inhibition (GI) (BT474c [21]): Dose-dependent effect; CLH (Hepatocyte [6]): 3 µL/min; inhibition (BT474c [22]): Active; fraction unbound [7]: 0.419; clearance ([8]; whole blood): 21 mL/min/kg; inhibition (Mus musculus [23]): Active; Vd [9]: 11.1 L/kg; inhibition (Mus musculus [24]): Active; inhibition (Mus musculus [25]): Active |
| NC1(c2ccc(-c3nn4ccnc4cc3-c3ccccc3)cc2)CCC1 | 6.41 | 6.67 | – | 6.28 | – | bioavailability [14]: 0%; CLH (Hepatocyte [16]): 274 µL/min; CLH (Hepatocyte [6]): 8 µL/min; fraction unbound [7]: 0.123; clearance ([8]; in vivo): 57 mL/min/kg; Vd [9]: 2.3 L/kg |
| NC1(c2ccc(-c3nn4ccccc4c3-c3ccccc3)cc2)CCC1 | 6.69 | 6.82 | – | 6.70 | – | bioavailability [14]: 0%; clearance ([8]; whole blood): 171 mL/min/kg; Vd [9]: 8 L/kg |
| NC(=O)c1ccn2c(-c3ccccc3)c(-c3ccc(C4(N)CCC4)cc3)nc2c1 | 7.09 | 7.04 | 2 | 6.46 | 110 µM (≈ 42.1 µg/mL) | – |
| NC1(c2ccc(-c3ncc4ccccc4c3-c3ccccc3)cc2)CCC1 | 6.27 | 6.75 | – | 6.52 | – | – |
| NC1(c2ccc(-c3c(-c4ccccc4)ncc4nccn34)cc2)CCC1 | 5.66 | 5.61 | 1.7 | 5.27 | 2500 µM (≈ 851 µg/mL) | – |
| NC1(c2ccc(-c3c(-c4ccccc4)ccn4ccnc34)cc2)CCC1 | 6.49 | 6.41 | – | 5.74 | – | – |
| NC1(c2ccc(-c3ncc4nccn4c3-c3ccccc3)cc2)CCC1 | 6.41 | 6.44 | 1.3 | 5.90 | 2500 µM (≈ 851 µg/mL) | bioavailability [14]: 30%; CLH (Hepatocyte [16]): 16 µL/min; CLH (Hepatocyte [6]): 3 µL/min; fraction unbound [7]: 0.371; clearance ([8]; whole blood): 62 mL/min/kg; Vd [9]: 10.3 L/kg |
| NC1(c2ccc(-c3nc4ccccc4c(=O)n3-c3ccccc3)cc2)CCC1 | 5.58 | 5.68 | 1.5 | 5.15 | 2300 µM (≈ 845 µg/mL) | – |
| NC1(c2ccc(-c3nc4ccccc4cc3-c3ccccc3)cc2)CCC1 | 6.25 | 6.60 | 3.6 | 6.61 | 290 µM (≈ 102 µg/mL) | bioavailability [14]: 0%; CLH (Hepatocyte [16]): 148 µL/min; fraction unbound [7]: 0.011; clearance ([8]; in vivo): 26 mL/min/kg; Vd [9]: 3.1 L/kg |
| NC1(c2ccc(-c3nc4ccccn4c3-c3ccccc3)cc2)CCC1 | 6.74 | 6.91 | 2.8 | 6.41 | 1900 µM (≈ 645 µg/mL) | bioavailability [14]: 36%; CLH (Hepatocyte [16]): 291 µL/min; CLH (Hepatocyte [6]): 18 µL/min; fraction unbound [7]: 0.068; clearance ([8]; whole blood): 41 mL/min/kg; Vd [9]: 10.3 L/kg |
| Cn1cnc2c(-c3ccc(C4(N)CCC4)cc3)c(-c3ccccc3)ccc21 | 6.46 | 6.44 | – | 5.55 | – | – |
| NC1(c2ccc(-n3c(-c4ccccc4)nc4ccccc4c3=O)cc2)CCC1 | 5.23 | 5.11 | 1.6 | 4.38 | 1400 µM (≈ 514 µg/mL) | – |
| NC1(c2ccc(-c3ncc4ccncc4c3-c3ccccc3)cc2)CCC1 | 7.27 | 7.01 | 2.2 | 6.71 | 1400 µM (≈ 492 µg/mL) | fraction unbound [7]: 0.105 |
| NC1(c2ccc(-c3ncc4ncccc4c3-c3ccccc3)cc2)CCC1 | 7.05 | 7.33 | – | 6.73 | – | – |
| NC1(c2ccc(-c3nn4ccc(=O)nc4cc3-c3ccccc3)cc2)CCC1 | 5.79 | 5.66 | 0.2 | 5.06 | 1900 µM (≈ 700 µg/mL) | – |
| CCn1cnc2cnc(-c3ccc(C4(N)CCC4)cc3)c(-c3ccccc3)c21 | 5.92 | 5.81 | 2 | 5.05 | – | – |
| NC1(c2ccc(-c3c(-c4ccccc4)ccc4ncnn34)cc2)CCC1 | 6.43 | 6.53 | – | 5.67 | – | – |
| NC1(c2ccc(-c3nn4cccc4cc3-c3ccccc3)cc2)CCC1 | 5.61 | 5.91 | 3.3 | 6.03 | 27 µM (≈ 9.16 µg/mL) | – |
| NC1(c2ccc(-c3ncc4cccn4c3-c3ccccc3)cc2)CCC1 | 6.22 | 6.32 | 2.5 | 6.10 | 1500 µM (≈ 509 µg/mL) | – |
| NC1(c2ccc(-c3ncc4cccnc4c3-c3ccccc3)cc2)CCC1 | 6.78 | 6.98 | 1.7 | 6.33 | 2000 µM (≈ 703 µg/mL) | – |
| NC1(c2ccc(-c3c(-c4ccccc4)ccc4ccnn34)cc2)CCC1 | 5.92 | 6.08 | – | 5.57 | – | – |
